According to ChEMBL document CHEMBL1201862, “PubChem BioAssay data set” (2004):
Activity calls are given as the source filed them. Non-standard residues stand in square brackets, D forms with d. Residues, ends and D or L forms follow the SMILES beside them. dChg = N[C@@H](C(=O)O)C1CCCCC1; NMeA = CN[C@@H](C)C(=O)O

Assays:
[1] = target: T1, RNA-binding protein pos-1 (Caenorhabditis elegans, UniProt G5EF15); experiment: inhibitors of POS-1/mex-3 RNA binding, dose response, biochemical, fluorescence polarization (AID 1964);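 note: purified POS-1 fused to maltose binding protein made in E. coli; potency of compounds blocking POS-1 binding to fluorescent RNA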
T1 sequence (G5EF15 whole entry): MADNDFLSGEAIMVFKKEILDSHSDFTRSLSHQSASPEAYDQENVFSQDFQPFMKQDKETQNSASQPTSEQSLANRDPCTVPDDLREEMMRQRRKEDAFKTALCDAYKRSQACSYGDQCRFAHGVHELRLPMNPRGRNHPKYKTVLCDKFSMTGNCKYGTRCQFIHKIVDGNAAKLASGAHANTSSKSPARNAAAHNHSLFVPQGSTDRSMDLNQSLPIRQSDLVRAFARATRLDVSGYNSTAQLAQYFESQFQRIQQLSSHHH

[2] = target: Sphingosine 1-phosphate receptor 1 (Homo sapiens, UniProt P21453); experiment: Fluorescence-based counterscreen assay for S1P4 agonists: Cell-based dose response high throughput screening assay to identify agonists of the Sphingosine 1-Phosphate Receptor 1 (S1P1). [Related pubchem assays (depositor defined):AID1509, AID1523, AID1801, AID463107, AID463118, AID463119, AID463122, AID463123, AID463129, AID463225, AID504400, AID504460]; assay type: functional
[3] = target: T2, Sphingosine 1-phosphate receptor 4 (Homo sapiens, UniProt O95977); experiment: Fluorescence dose response cell-based high throughput screening assay for agonists of the Sphingosine 1-Phosphate Receptor 4 (S1P4). [Related pubchem assays: 1509 (Primary screen.), 1523 (Confirmation screen in triplicates.)]; assay type: functional
T2 sequence (O95977 whole entry): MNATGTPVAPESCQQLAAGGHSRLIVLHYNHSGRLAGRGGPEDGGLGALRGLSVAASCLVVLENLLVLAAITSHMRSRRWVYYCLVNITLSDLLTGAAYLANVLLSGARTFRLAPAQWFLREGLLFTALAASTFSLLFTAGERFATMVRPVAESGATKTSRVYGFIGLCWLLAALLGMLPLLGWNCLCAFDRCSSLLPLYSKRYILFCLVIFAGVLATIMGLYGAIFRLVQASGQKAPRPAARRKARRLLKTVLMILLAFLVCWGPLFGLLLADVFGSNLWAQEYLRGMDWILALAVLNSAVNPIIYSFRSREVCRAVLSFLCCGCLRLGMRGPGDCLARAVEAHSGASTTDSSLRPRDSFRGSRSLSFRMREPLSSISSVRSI

[4] = target: T3, Zinc finger protein mex-5 (Caenorhabditis elegans, UniProt Q9XUB2); experiment: MEX-5/TCR-2 RNA interaction inhibitors, dose response, biochemical, C. elegans, fluorescence polarization (AID 1960)
T3 sequence (Q9XUB2 whole entry): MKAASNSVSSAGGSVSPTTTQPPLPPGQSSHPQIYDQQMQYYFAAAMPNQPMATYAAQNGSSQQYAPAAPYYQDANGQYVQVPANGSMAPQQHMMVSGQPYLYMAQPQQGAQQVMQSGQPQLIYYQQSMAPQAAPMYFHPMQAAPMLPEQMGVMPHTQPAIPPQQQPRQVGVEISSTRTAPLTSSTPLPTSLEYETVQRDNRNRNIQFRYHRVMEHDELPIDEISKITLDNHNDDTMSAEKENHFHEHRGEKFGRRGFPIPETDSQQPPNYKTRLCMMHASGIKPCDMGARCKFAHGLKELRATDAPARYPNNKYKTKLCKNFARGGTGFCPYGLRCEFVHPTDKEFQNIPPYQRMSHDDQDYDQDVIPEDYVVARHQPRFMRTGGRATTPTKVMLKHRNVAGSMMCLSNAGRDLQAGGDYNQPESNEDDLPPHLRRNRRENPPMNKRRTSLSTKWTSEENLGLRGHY

[5] = target: Procathepsin L (Homo sapiens, UniProt P07711)
[6] = target: Aspartyl aminopeptidase (Plasmodium falciparum 3D7, UniProt Q8I2J3)
[7] = target: T4, E3 ubiquitin-protein ligase XIAP (Homo sapiens, UniProt P98170); experiment: Counter Screen using XIAP-Bir3 for Chemical Antagonists of Bir1/2 domains of IAP-family anti-apoptotic proteins. [Related pubchem assays (depositor defined):AID1018, AID1449, AID1514, AID1638, AID1749, AID1750, AID488957, AID488963]
[8] = target: T5, X-box-binding protein 1 (Homo sapiens, UniProt P17861); assay type: functional, Cricetulus griseus;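 note: confirmatory dose-response counter-screen serving a CHOP assay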
T5 sequence (P17861 whole entry): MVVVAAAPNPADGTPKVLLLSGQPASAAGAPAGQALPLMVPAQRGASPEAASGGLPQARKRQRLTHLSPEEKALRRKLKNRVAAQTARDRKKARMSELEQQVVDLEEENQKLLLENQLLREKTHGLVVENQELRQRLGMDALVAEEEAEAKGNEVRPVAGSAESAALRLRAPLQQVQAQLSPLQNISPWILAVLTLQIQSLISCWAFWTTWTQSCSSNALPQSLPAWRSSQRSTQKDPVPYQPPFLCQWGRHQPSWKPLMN

[9] = HEK293T cell cytotoxicity, dose response, cytotoxicity control for HIV Vif inhibitor project, cherry-picks (AID 652208); assay type: functional, cell-based
[10] = target: DNA damage-inducible transcript 3 protein (Mus musculus, UniProt P35639); assay type: functional, Cricetulus griseus
[11] = target: T4, E3 ubiquitin-protein ligase XIAP; experiment: XIAP antagonists, biochemical, IAP family, fluorescence polarization (AID 1018); assay type: functional
[12] = target: Peroxisome proliferator-activated receptor gamma/Nuclear receptor coactivator 2 (Homo sapiens, UniProt P37231); experiment: TR-FRET dose response biochemical High Throughput Screening assay for agonists of the steroid receptor coactivator 2 (SRC-2) recruitment by the peroxisome proliferator-activated receptor gamma (PPAR gamma): non-selective agonists. [Related pubchem assays: 1297, 1032 ]; assay type: functional
[13] = target: Peroxisome proliferator-activated receptor gamma/Nuclear receptor coactivator 1 (Homo sapiens, UniProt P37231); experiment: TR-FRET dose response biochemical High Throughput Screening assay for agonists of the steroid receptor coactivator 1 (SRC-1) recruitment by the peroxisome proliferator-activated receptor gamma (PPAR gamma): non-selective agonists. [Related pubchem assays (depositor defined):AID1300, AID1808, AID504735, AID631]; assay type: protein assay
[14] = target: Troponin, cardiac muscle (Homo sapiens, UniProt P19429+P45379+P63316); experiment: Fluorescence-based biochemical high throughput dose response assay for activators of the calcium sensitivity of cardiac Regulated Thin Filaments (RTF). [Related pubchem assays (depositor defined):AID493008, AID493018, AID504382, AID504383]; assay type: protein-complex assay
[15] = target: Peroxisome proliferator-activated receptor gamma/Nuclear receptor coactivator 3 (Homo sapiens, UniProt P37231); experiment: TR-FRET dose response biochemical High Throughput Screening assay for agonists of the steroid receptor coactivator 3 (SRC-3) recruitment by the peroxisome proliferator-activated receptor gamma (PPAR gamma): non-selective agonists. [Related pubchem assays: 1301 (Confirmation screen.), 1048 (Primary screen.)]; assay type: functional
[16] = target: Intestinal-type alkaline phosphatase (Homo sapiens, UniProt P09923); experiment: human intestinal alkaline phosphatase activators, dose response, biochemical, luminescence, uHTS hits (AID 463120); assay type: functional
[17] = target: T6, Protein RecA (Mycobacterium tuberculosis, UniProt P9WHJ3); experiment: Fluorescence Cell-Free Homogeneous Dose Retest to Identify Inhibitors of RecA-Intein Splicing Activity. [Related pubchem assays (depositor defined):AID2097, AID2223, AID489010, AID492950]; assay type: functional
T6 sequence (P9WHJ3 whole entry): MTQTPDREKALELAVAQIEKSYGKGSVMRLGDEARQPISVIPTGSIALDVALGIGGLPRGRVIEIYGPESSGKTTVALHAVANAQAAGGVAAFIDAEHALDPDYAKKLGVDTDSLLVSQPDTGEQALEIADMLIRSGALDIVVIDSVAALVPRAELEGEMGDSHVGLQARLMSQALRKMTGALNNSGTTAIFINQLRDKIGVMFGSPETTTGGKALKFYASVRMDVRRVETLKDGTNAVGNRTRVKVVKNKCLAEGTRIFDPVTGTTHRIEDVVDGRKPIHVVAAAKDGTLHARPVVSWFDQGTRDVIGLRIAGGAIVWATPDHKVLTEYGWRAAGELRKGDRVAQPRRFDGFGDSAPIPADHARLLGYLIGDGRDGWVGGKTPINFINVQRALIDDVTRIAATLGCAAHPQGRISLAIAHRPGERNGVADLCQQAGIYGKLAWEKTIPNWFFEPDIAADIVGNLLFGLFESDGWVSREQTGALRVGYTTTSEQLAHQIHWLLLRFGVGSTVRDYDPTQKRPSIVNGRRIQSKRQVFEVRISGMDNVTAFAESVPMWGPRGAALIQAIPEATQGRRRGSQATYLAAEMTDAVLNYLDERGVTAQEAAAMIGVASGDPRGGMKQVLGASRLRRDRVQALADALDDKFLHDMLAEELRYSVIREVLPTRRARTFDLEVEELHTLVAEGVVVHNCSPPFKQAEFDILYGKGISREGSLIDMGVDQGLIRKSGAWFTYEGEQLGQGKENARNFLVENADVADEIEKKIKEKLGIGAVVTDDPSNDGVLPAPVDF

[18] = target: Protein-arginine deiminase type-4 (Homo sapiens, UniProt Q9UM07); experiment: human PAD4 inhibitor potency, dose response, biochemical, fluorescence readout (AID 492970)
[19] = target: T7, Replicative DNA helicase DnaB (Mycobacterium tuberculosis, UniProt P9WMR3); experiment: DnaB intein splicing inhibitors, dose response, biochemical, cell-free fluorescence (AID 449749); assay type: functional
T7 sequence (P9WMR3 whole entry): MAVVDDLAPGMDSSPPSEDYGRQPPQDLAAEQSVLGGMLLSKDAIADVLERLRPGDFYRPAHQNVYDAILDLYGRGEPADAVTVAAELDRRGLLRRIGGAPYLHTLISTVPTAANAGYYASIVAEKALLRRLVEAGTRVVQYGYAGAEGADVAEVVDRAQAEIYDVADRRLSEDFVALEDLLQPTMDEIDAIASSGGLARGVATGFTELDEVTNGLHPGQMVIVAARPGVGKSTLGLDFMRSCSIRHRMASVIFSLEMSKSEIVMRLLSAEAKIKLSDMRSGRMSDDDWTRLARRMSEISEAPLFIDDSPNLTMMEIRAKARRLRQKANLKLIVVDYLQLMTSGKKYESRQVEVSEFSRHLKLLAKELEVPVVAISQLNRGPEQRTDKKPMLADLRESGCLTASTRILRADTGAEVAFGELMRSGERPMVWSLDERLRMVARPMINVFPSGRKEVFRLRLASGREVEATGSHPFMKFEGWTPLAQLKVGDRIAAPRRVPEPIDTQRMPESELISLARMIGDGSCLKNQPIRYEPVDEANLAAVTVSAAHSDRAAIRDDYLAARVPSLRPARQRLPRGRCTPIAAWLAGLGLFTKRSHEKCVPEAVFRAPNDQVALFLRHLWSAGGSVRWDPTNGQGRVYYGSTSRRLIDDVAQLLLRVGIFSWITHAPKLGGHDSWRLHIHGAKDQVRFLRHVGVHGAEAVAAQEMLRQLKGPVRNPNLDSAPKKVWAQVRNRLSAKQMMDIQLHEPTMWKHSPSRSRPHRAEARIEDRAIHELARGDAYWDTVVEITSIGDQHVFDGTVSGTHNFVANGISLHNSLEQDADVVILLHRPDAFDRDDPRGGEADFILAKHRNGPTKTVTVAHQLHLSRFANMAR

[20] = target: T8, Kappa-type opioid receptor (Homo sapiens, UniProt P41145); experiment: SAR analysis of small molecule agonists of the kappa opioid receptor via a luminescent beta-arrestin assay - Set 2. [Related pubchem assays (depositor defined):AID1777, AID1785, AID1786, AID1966, AID2133, AID2136, AID2284, AID449737]; assay type: functional
[21] = target: Delta-type opioid receptor (Homo sapiens, UniProt P41143); experiment: SAR Analysis of Antagonists of the DOR Receptor using an Image-Based Assay - Set 2. [Related pubchem assays (depositor defined):AID1777, AID1785, AID1786, AID1966, AID2133, AID2136, AID2284, AID2285, AID2357]; assay type: functional
[22] = target: T8, Kappa-type opioid receptor; experiment: SAR analysis of Antagonists of the Kappa Opioid Receptor (KOR) using an Image-Based Assay - Set 2. [Related pubchem assays (depositor defined):AID1777, AID1785, AID1786, AID1966, AID2133, AID2136, AID2284, AID2285, AID2348]; assay type: functional
[23] = target: T4, E3 ubiquitin-protein ligase XIAP; experiment: SAR analysis of Antagonists of IAP-family anti-apoptotic proteins. [Related pubchem assays (depositor defined):AID1018, AID1449, AID1513, AID1514, AID1638]
[24] = target: T4, E3 ubiquitin-protein ligase XIAP; experiment: SAR analysis of Antagonists of XIAP-Bir3 domain of IAP-family anti-apoptotic proteins. [Related pubchem assays (depositor defined):AID1018, AID1449, AID1513, AID1514, AID1638]

## CCOC(=O)c1c(-n2c(C)cc(C=C3C(=O)NC(=O)NC3=O)c2C)sc2c1CCCC2
[1]
  EC50: > 300 µM (inconclusive)
[2]
  EC50: > 49.8 µM (inactive)
[3]
  EC50: > 16.6 µM (not active)
[4]
  EC50: > 300 µM (inconclusive)

## Cc1cc(NC(=O)NC2(C(F)(F)F)Oc3ccc(Cl)cc3O2)no1 (centres undefined)
[5]
  IC50: > 59.6 µM (not active)
[6]
  IC50: 1.69 µM (active)
[7]
  IC50: > 100 µM (inactive)
[8]
  Absolute IC50 (XBP1): < 10 µM
[9]
  AC50: 38 µM (active)
[10]
  Absolute IC50 (CHOP): 10 µM
[11]
  IC50: > 100 µM (not active)

## CNC(=S)N1N=C(c2ccc(Br)cc2)CC1c1ccc(N(C)C)cc1 (centres undefined)
[12]
  EC50: 14 µM (not active)
[13]
  EC50: 11.6 µM (inactive)
[14]
  EC50: 40 µM (inactive)
[15]
  EC50: > 79.4 µM (not active)

## O=C(COc1ccc(Br)cc1)NCCCn1ccnc1
[16]
  EC50: > 100 µM (inactive)

## COC(=O)c1nc(O)c2ccccc2c1O
[17]
  EC50: 3.57 µM (active)
[18]
  IC50: 42 µM (inactive)
[19]
  AC50: 5.62 µM (active)

## CC[C@](C)(C(=O)Nc1ccc(Br)cc1)N(Cc1ccco1)C(=O)c1ccccn1
[20]
  EC50: 80.2 nM (active)
[21]
  IC50: > 32 µM (inactive)
[22]
  IC50: > 32 µM (inactive)

## CC1CCCc2ccccc21.CN[C@@H](C)C(=O)N[C@@H](C(=O)N1CCC[C@H]1C(N)=O)C1CCCCC1 (H-[NMeA]-[dChg]-Pro-NH2)
[23]
  IC50: > 100 µM (inactive)
[24]
  IC50: > 100 µM (inactive)
